40 molecules from patent publication US10221190B2, “Biguanide compounds and use thereof” (IMMUNOMET THERAPEUTICS INC., priority 2013, dated 2019) can be followed below.

As a reminder, the IC50 is the point on the concentration scale where inhibition reaches its midpoint. A higher IC50 goes with a need for much substance.

The subject of this test is HCT116 cell. In words: Inhibitory activity against cancer cells (MTT cell viability), HCT116. As to conditions: Homo sapiens, HCT 116, 48 hr incubation. Format: cell-based, human. The method, then: The inhibitory activities of biguanide derivatives against cancer cells were evaluated in the cell line SK-MEL-28 derived from human Melanoma cell, Miapaka-2 cell line derived from human pancreatic cancer cell and HCT116 cell line derived from human colorectal cancer cell by measuring the concentration that inhibits 50% of the growth of the cell lines (the half maximal inhibitory concentration, IC50).
Firstly, SK-MEL-28 cells were grown to be density of 5,000 cells/well in RPMI-1640 media supplemented with 10% (v/v) bovine calf serum, on 96-well plates for 16 hr. To measure the IC50 of each compound, the cells were incubated for 48 hr with the 100 mM PBS stock compounds at an amount of 10 mM, 1 mM, 200 uM, 40 uM, 8 uM, 1.6 uM, 0.32 uM or 0.064 uM; 50 mM PBS and EtOH stock compounds at an amount of 1 mM, 200 uM, 40 uM, 8 uM, 1.6 uM, 0.32 uM and 0.064 uM; and 50 mM DMSO stock compounds at an amount of 100 uM, 25 uM, 6.25 uM, 1.56 uM, 0.39 uM, 0.10 uM and 0.02 uM, respectively. To test the viable cells after incubation with each compound, the cell cultures were incubated additionally for 2 hr in the presence of MTT. The produced formazan crystals were dissolved with dimethyl sulfoxide and then measured by detecting the absorbance at 560 nm.
After the 48 hr incubation, the viable cells were counted on the well plates treated with the compounds of the Examples relative to the count of the viable cells on the non-treated plates, and then was represented as the cell viability (%). By using the cell viability (%) result, the cell viability curve was plotted, and IC50 was calculated from the curve to evaluate the inhibitory activity against cancer cells.
The inhibitory activities of biguanide derivatives against cancer cells of Miapaca-2 cell and HCT116 cell were evaluated according to the substantially same method as described in SK-MEL-28 cell, except that DMEM media supplemented with 10% (v/v) bovine calf serum was used instead of RPMI-1640 media supplemented with 10% (v/v) bovine calf serum for SK-MEL-28 cell.
The molecule `CN1CCN(C(=N)NC(=N)Nc2cccc(Br)c2)CC1` [Example 32, N1-4-methyl piperazine-N5-(3-bromo)phenyl biguanide] returned a 50% inhibitory concentration (IC50) of 90.3 µM.

With `C[C@@H]1CCC[C@H](C)N1C(=N)NC(=N)Nc1ccc(CCNC(=O)CCCCC2CC3NC(=O)NC3S2)cc1` (stereo partly drawn) [Example 81, N-(4-(3-(((2R,6S)-2,6-dimethylpiperidin-1-yl)(imino)methyl)guanidino)phenethyl)-5-(2-oxohexahydro-1H-thieno[2,3-d]imidazol-5-yl)pentanamide], the concentration for half-maximal inhibition (IC50) is over 100 µM.

On to `N=C(NC(=N)Nc1cccnc1)Nc1ccc(C(F)(F)F)cc1` [Example 62, N1-3-pyridine-N5-(4-trifluoromethyl)phenyl biguanide], for which the 50% inhibitory concentration (IC50) is over 100 µM.

Molecule `N=C(NC(=N)N1CCc2ccccc21)Nc1ccc(Oc2ccccc2)cc1` [Example 90, N—(N-(4-phenoxyphenyl)carbamimidoyl)indoline-1-carboximidamide] displayed a concentration for half-maximal inhibition (IC50) of 27.7 µM.

Turning to `N=C(N)NC(=N)Nc1ccc(F)cc1` [Example 55, N5-4-fluorophenyl biguanide], the IC50 is over 100 µM.

For the molecule `CCNC(=O)c1cccc(CNC(=N)NC(=N)N2CCCC2)c1` [Example 30, N-ethyl-3-((3-(imino(pyrrolidin-1-yl)methyl)guanidino)methyl)benzamide], the IC50 is over 100 µM.

`N=C(NC(=N)N1CCCC1)Nc1ccc(NC(=O)CCCCC2CC3NC(=O)NC3S2)cc1` (stereo not shown) [Example 82, N-(4-(3-(imino(pyrrolidin-1-yl)methyl)guanidino)phenyl)-5-(2-oxohexahydro-1H-thieno[2,3-d]imidazol-5-yl)pentanamide] yielded a concentration for half-maximal inhibition (IC50) of over 100 µM.

For `CC1CCCCN1C(=N)NC(=N)Nc1ccc(CCNC(=O)CCCCC2CC3NC(=O)NC3S2)cc1` (stereo not shown) [Example 78, N-(4-(3-(imino(2-methylpiperidin-1-yl)methyl)guanidino)phenethyl)-5-(2-oxohexahydro-1H-thieno[2,3-d]imidazol-5-yl)pentanamide], the IC50 was over 100 µM.

Take `N=C(NC(=N)N1CCCC1)Nc1ccc(CNC(=O)c2ccccc2-c2c3ccc(=O)cc-3oc3cc(O)ccc23)cc1` [Example 83, 2-(6-hydroxy-3-oxo-3H-xanthen-9-yl)-N-(4-(3-(imino(pyrrolidin-1-yl)methyl)guanidino)benzyl)benzamide]: the IC50 amounted to 56.8 µM.

As to `CCN1CCN(C(=N)NC(=N)Nc2ccc(OC(F)(F)F)cc2)CC1` [Example 45, N1-4-ethyl piperazine-N5-(4-trifluoromethoxy)phenyl biguanide], it took 33.8 µM to reach half-maximal inhibition (IC50).

`N=C(NC(=N)N1CCc2ccccc21)Nc1cccc(Oc2ccccc2)c1` [Example 91, N—(N-(3-phenoxyphenyl)carbamimidoyl)indoline-1-carboximidamide]: the IC50 came to 11 µM.

Turning to `CN1CCN(C(=N)NC(=N)Nc2ccc(OC(F)(F)F)c(Cl)c2)CC1` [Example 36, N1-4-methyl piperazine-N5-(3-chloro-4-trifluoromethoxy)phenyl biguanide], the midpoint of inhibition, the IC50, lay at 7.1 µM.

As for `N=C(NCc1ccc(C(F)(F)F)cc1)NC(=N)Nc1cccnc1` [Example 64, N1-3-pyridine-N5-(4-trifluoromethyl)benzyl biguanide], the IC50 was determined as 29.2 µM.

`COc1ccc(NC(=N)NC(=N)N2CCCC2)cc1` [Example 2, N1-pyrrolidine-N5-(4-methoxy)phenyl biguanide] registered a half-maximal inhibitory concentration (IC50) of over 100 µM.

Molecule `N=C(NCc1ccco1)NC(=N)Nc1ccc(OC(F)(F)F)cc1` [Example 71, N1-furan-2-ylmethyl-N5-(4-trifluoromethoxy)phenyl biguanide] showed an IC50 of 6.9 µM.

Regarding `N=C(Nc1nc2ccccc2[nH]1)N1CCCC1` [Example 96, N-(1H-benzo[d]imidazol-2-yl)pyrrolidine-1-carboximidamide], the concentration for half-maximal inhibition (IC50) is over 100 µM.

On to `N=C(NC(=N)N1CCCC1)Nc1ccc(CCN)cc1` [Example 47], for which the half-maximal inhibitory concentration (IC50) was over 100 µM.

On to `N=C(NC(=N)N1CCCC1)Nc1ccc(-c2cccc(F)c2)cc1` [Example 11, N1-pyrrolidine-N5-(3′-fluorobiphenyl-4-yl) biguanide], for which the IC50 came to 6.46 µM.

Take `CC1CCCN(C(=N)NC(=N)Nc2ccc(CCN)cc2)C1` (stereo not shown) [Example 50]: the half-inhibitory concentration (IC50) was over 100 µM.

`CN1CCN(C(=N)NC(=N)Nc2ccc(OC(F)(F)F)c(F)c2)CC1` [Example 37, N1-4-methyl piperazine-N5-(3-fluoro-4-trifluoromethoxy)phenyl biguanide] showed an IC50 of 32.3 µM.

As to `CC1CC(C)CN(C(=N)NC(=N)Nc2ccc(CCNC(=O)CCCCC3CC4NC(=O)NC4S3)cc2)C1` (stereo not shown) [Example 79, N-(4-(3-((3,5-dimethylpiperidin-1-yl)(imino)methyl)guanidino)phenethyl)-5-(2-oxohexahydro-1H-thieno[2,3-d]imidazol-5-yl)pentanamide], the IC50 is over 100 µM.

As for `N=C(NC(=N)NC1CCCC1)Nc1ccc(OC(F)(F)F)cc1` [Example 68, N1-cyclopentyl-N5-(4-trifluoromethoxy)phenyl biguanide], half-maximal inhibition (IC50) required 53.1 µM.

For `N=C(NC(=N)N1CCc2ccccc2C1)Nc1ccc(OC(F)(F)F)cc1` [Example 87, N—(N-(4-(trifluoromethoxy)phenyl)carbamimidoyl)-3,4-dihydroisoquinolin-2(1H)-carboximidamide], the IC50 was 2.57 µM.

`N=C(NC(=N)N1CCCC1)Nc1cccc(-c2ccccc2)c1` [Example 8, N1-pyrrolidine-N5-(N-biphenyl-3-yl) biguanide] displayed a 50% inhibitory concentration (IC50) of 6.97 µM.

In turn, `N=C(NC(=N)NC1CCCC1)Nc1ccc(F)cc1` [Example 69, N1-cyclopentyl-N5-(4-fluoro)phenyl biguanide] had an IC50 of 68.5 µM.

`C[C@@H]1CCC[C@H](C)N1C(=N)NC(=N)Nc1ccc(CCN)cc1` [Example 46] had a concentration for half-maximal inhibition (IC50) of over 100 µM.

Consider `CC1CCCN(C(=N)NC(=N)Nc2ccc(CNC(=O)c3ccccc3-c3c4ccc(=O)cc-4oc4cc(O)ccc34)cc2)C1` (stereo not shown) [Example 86, 2-(6-hydroxy-3-oxo-3H-xanthene-9-yl)-N-(4-(3-(imino(3-methylpiperidine-1-yl)methyl)guanidino)benzyl)benzamide], for which the IC50 came to 53.2 µM.

The molecule `N=C(Nc1nc2cc(OC(F)(F)F)ccc2[nH]1)N1CCCC1` [Example 92, N-(5-(trifluoromethoxy)-1H-benzo[d]imidazol-2-yl)pyrrolidine-1-carboximidamide] registered an IC50 of over 100 µM.

Take `CN1CCN(C(=N)NC(=N)NCc2cccc(Br)c2)CC1` [Example 34, N1-4-methyl piperazine-N5-(3-bromo)benzyl biguanide]: the 50% inhibitory concentration (IC50) was over 100 µM.

`CC1CCCCN1C(=N)NC(=N)Nc1ccc(CCN)cc1` (stereo not shown) [Example 48] gave a 50% inhibitory concentration (IC50) of over 100 µM.

As to `CN(C)C(=N)NC(=N)Nc1ccc(SCC(=O)N2CCCCC2)cc1` [Example 61, N1,N1-dimethyl-N5-4-(2-oxo-2-(piperidin-1-yl)ethylthio)phenyl biguanide], the 50% inhibitory concentration (IC50) is over 100 µM.

Take `N=C(NC(=N)N1CCc2ccccc21)Nc1ccc(OC(F)(F)F)cc1` [Example 88, N—(N-(4-(trifluoromethoxy)phenyl)carbamimidoyl)indoline-1-carboximidamide]: the 50% inhibitory concentration (IC50) is 7.42 µM.

For `N=C(NC(=N)N1CC[C@H](O)C1)Nc1ccc(SCC(=O)N2CCCCC2)cc1` [Example 29, (S)-3-hydroxy-N—(N-(4-(2-oxo-2-(piperidin-1-yl)ethylthio)phenyl)carbamimidoyl)pyrrolidine-1-carboximidamide], the half-maximal inhibitory concentration (IC50) is over 100 µM.

`CN1CCN(C(=N)NC(=N)Nc2ccc(F)c(C(F)(F)F)c2)CC1` [Example 35, N1-4-methyl piperazine-N5-(4-fluoro-3-trifluoromethyl)phenyl biguanide] returned an IC50 of 32.4 µM.

Take `CN(C)c1ccc(NC(=N)NC(=N)N2CCCC2)cc1` [Example 5, N1-pyrrolidine-N5-(4-dimethylamino)phenyl biguanide]: the half-maximal inhibitory concentration (IC50) is over 100 µM.

As to `CN1CCN(C(=N)NC(=N)Nc2ccc(C(F)(F)F)c(F)c2)CC1` [Example 44, N1-4-methyl piperazine-N5-(3-fluoro-4-trifluoromethyl)phenyl biguanide], the half-inhibitory concentration (IC50) amounted to 42.2 µM.

Regarding `Cc1ccc2[nH]c(NC(=N)N3CCCC3)nc2c1` [Example 94, N-(5-methyl-1H-benzo[d]imidazol-2-yl)pyrrolidine-1-carboximidamide], the IC50 is over 100 µM.

The molecule `N=C(NCc1ccc(C(=O)N2CCCCC2)cc1)NC(=N)N1CCCC1` [Example 25, N—(N-(4-(piperidine-1-carbonyl)benzyl)carbamimidoyl)pyrrolidine-1-carboximidamide] showed an IC50 of over 100 µM.

Consider `N=C(N)NC(=N)Nc1ccc(Cl)c(Cl)c1` [Example 56], for which inhibition was half-maximal at 34.8 µM (IC50).

`N=C(NC(=N)N1CCCC1)NC1CCCc2ccccc21` (stereo not shown) [Example 15, N1-pyrrolidine-N5-(1,2,3,4-tetrahydronaphthalen-1-yl) biguanide] showed an IC50 of 712 µM.
